From US4618598A, “Method of regulating hormone function or release” (Duke University, priority 1982, dated 1986)

Experiments:
[1] = test system: pituitary cell cultures; settings: for effect on conjugate-stimulated LH release: Example 4, 2 mM EGTA (1.25 mM extracellular calcium), five micromolar Pimozide; for effect on LH release stimulated by dimer plus antibody: Example 7, 5 μM Pimozide or 2 mM EGTA, all titers, 1.5×10^-11 M dimer
Protocol: (§1) Luteinizing hormone release from pituitary cell cultures is dependent upon the binding of the gonadotropin releasing hormone to its specific cell surface receptor. […] In FIG. 2 the antagonist activity of GnRH-Ant was measured in a cell culture bioassay. Two day pituitary cell cultures were incubated with 10^-8 M, 10^-9 M, or no GnRH at the indicated concentration of antagonist. After the 5 h incubation period, the medium was assayed for LH by RIA using rat LH antisera (LHS-4), highly purified rat LH for labeling (LH I-4), and rat LH standard (LH-RP-1) which were made available by a grant from the NIAMDD Hormone Distribution Office (prepared by Dr. A. Parlow, Torrance, CA.). The assay was performed as described below, except that second antibody was used to separate the bound and free [^ 125 -I]-LH.
Cell cultures were prepared, by collagenase-hyaluronidase dispersion of pituitaries from 25-day-old female weanling rats. The cultures were then incubated for 2 days at 37 C. in culture plates. […] After the culture period, the cells were washed free of debris and sera with medium 199 containing 0.3% bovine serum albumin (Cohn fraction V; 199/BSA) and incubated with the indicated compounds. Medium 199 normally contains 1 mM Ca^2+. Cells were incubated in 1.0 ml medium for 3 h. After the incubation period, the supernatant fraction was removed from the cells (attached to the culture dish) with a Pasteur pipette and assayed for LH by RIA employing rat LH antisera (LHS-5), highly purified rat LH for labeling (LH-I-6), and rat LH standard (LH-RP-1), all of which were made available by the NIAMMD Hormone Distribution Office and were prepared by Dr. A. Parlow (Torrance, CA). The assay was performed, using immobile protein A to separate the bound and free [^125 I]LH. […] LH release was normalized by DNA determination in order to correct for slight differences in cell numbers in different assay wells.
Rabbit anti-D-Lys^6 -GnRH (antiserum No. 5111 prepared by immunization with D-Lys^6 coupled to bovine serum albumin (BSA) with glutaraldehyde) was added without additional purification in an amount sufficient to bind 8-10% of the dimer. The antibody was added in a final volume of 50 μl (with Medium 199 containing 0.3% BSA and 2 mg NaN3). The reaction ws allowed to proceed 10 h at room temperature and then 2 days at 10° C. Immediately before the cell bioassay, the solution was applied to a 12 ml calibrated G-75 column (10×260 mm) equilibrated in 199/BSA. Twenty drop fractions (about 300 μl) were collected and brought to 1.0 ml with 199/BSA. […] Where monovalent antibody is specified, the reduced pepsin fragment of antibody (No. 5111) was substituted for intact antibody in the conjugation described above. In this case ammonium sulfate fractionated IgG was dissolved in 50 mM acetate buffer, pH 4.5 and digested with pepsin (Worthington Biochemical Corp.) at an enzyme:substrate ratio of 1:100 for 50 min at […]. Digestion was stopped by neutralization with 1M Tris-HCL, pH 8.0 and 0.1N NaOH. Precipitated material was removed by centrifugation and 2-mercaptoethanol added to the supernatant at a final concentration of 0.75 mM. The solution was maintained at room temperature for 1 h, then cooled in ice cold water.

[2] = molecular target: T1, gonadotropin releasing hormone receptor (Rattus norvegicus, UniProt P30969); test: Competitive binding against [125-I] Buserelin on pituitary plasma membrane fraction
T1 construct: gonadotropin releasing hormone sites on a plasma membrane fraction from the rat pituitary; from tissue; host or cells: rat pituitary plasma membrane fraction
T1 sequence (P30969 1-327): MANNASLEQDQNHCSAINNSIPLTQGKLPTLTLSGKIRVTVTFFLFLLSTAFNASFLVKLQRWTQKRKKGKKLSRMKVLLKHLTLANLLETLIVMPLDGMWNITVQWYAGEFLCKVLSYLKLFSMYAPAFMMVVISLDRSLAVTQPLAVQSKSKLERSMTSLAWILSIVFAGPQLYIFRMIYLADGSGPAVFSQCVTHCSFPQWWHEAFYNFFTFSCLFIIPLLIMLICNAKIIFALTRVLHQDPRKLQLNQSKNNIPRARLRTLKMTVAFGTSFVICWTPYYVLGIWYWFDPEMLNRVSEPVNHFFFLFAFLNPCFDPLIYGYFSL
Source text: [125-I]-Tyr^5 -D-ser(tert-butyl)^6 -desGly^10 -Pro^9 ethylamid-GnRH ([125-I] Buserelin, Hoechst Pharmaceuticals) binds to the gonadotropin releasing hormone receptor sites on the plasma membrane. The ability to compete with the iodine labelled Buserelin indicates the relative affinity for the receptor. […] The data are expressed in terms of equivalents of releasing hormone analogue showing the radioligand bound in the presence of the indicated analogue concentration (B) compared to that bound in the absence of added analog (Bo).
The binding assay was conducted in polypropylene microfuge tubes which were precoated overnight with 1% BSA. The assay contained approximately 20,000 cpm of ^125 I-labeled Buserelin and 30 μg of membrane protein, in the presence or absence of 10^-5 M GnRH. In some competition experiments, the amount of added GnRH was altered as indicated. To determine the specificity of binding, des-pGlu^1 -GnRH (Bachem, Torrance, Calif.), D-Ala^6 -GnRH (Peninsula Laboratories, Inc., San Carlos, Calif.), D-Phe^2 -D-Ala^6 -GnRH (Wyeth Laboratories, Philadelphia, Pa.) TRH (Peninsula Laboratories), arg^8 -vasopressin (Calbiochem, San Diego, Calif.), or somatostatin (Beckman Instruments, Fullerton, Calif.) were added at the indicated concentrations. The final assay volume was 500 μl adjusted with 10 mM Tris-0.1% BSA. Following a 2-hr incubation on ice, bound and free hormone were separated by centrifugation. (Eppendorf microfuge, 12,800×g, 5 min) through 100 μl of 10% (w/v) sucrose. The tips of the tubes were cut off and radioactivity was determined by γ-spectroscopy. […] For some kinetic studies, bound hormone and free hormone were separated by the method of rapid filtration. Incubations were performed in triplicate. Specific binding was determined by subtracting nonspecific binding (in the presence of excess unlabeled GnRH) from total binding (no GnRH). Scatchard analysis of the binding data, using linear regression analysis to establish best-line fit, was used to determine the number and binding affinity of GnRH receptors. […]

[3] = test system: pituitary cell cultures; test: Inhibition of GnRH-stimulated LH release from pituitary cell cultures (antagonist function); assay type: cell-based, rat
Protocol: as §1, with “FIG. 2 illustrates the ability of the gonadotropin releasing hormone antagonist to inhibit gonadotropin releasing hormone-stimulated LH release from pituitary cell cultures. Luteinizing” for “Luteinizing”, “receptor. The GnRH-antagonist binds to this receptor and blocks stimulation by GnRH.” for “receptor.”
Cell cultures were prepared, by collagenase-hyaluronidase dispersion of pituitaries from 25-day-old female weanling rats. The cultures were then incubated for 2 days at 37 C. in culture plates. […]

Compound: CC(C)C[C@H](NC(=O)[C@@H](CCCCN)NC(=O)[C@H](Cc1ccc(O)cc1)NC(=O)[C@H](CO)NC(=O)[C@H](Cc1c[nH]c2ccccc12)NC(=O)[C@H](Cc1c[nH]cn1)NC(=O)[C@@H]1CCC(=O)N1)C(=O)N[C@@H](CCCNC(=N)N)C(=O)N1CCC[C@H]1C(=O)NCC(N)=O [D-Lys^6 -GnRH, pyro glutamic acid-histidine-tryptophan-serine-tyrosine-D-lysine-leucine-arginine-proline-glycine-NH2]
- stimulated LH release ([1]; Example 7, 10^-7 M): 58±6 ng/100 ng DNA

Compound: CCNC(=O)[C@@H]1CCCN1C(=O)[C@H](CCCNC(=N)N)NC(=O)[C@H](CC(C)C)NC(=O)[C@@H](COC(C)(C)C)NC(=O)[C@H](Cc1ccc(O)cc1)NC(=O)[C@H](CO)NC(=O)[C@H](Cc1c[nH]c2ccccc12)NC(=O)[C@H](Cc1cnc[nH]1)NC(=O)[C@@H]1CCC(=O)N1 [Buserelin]
- IC50 [2]: ~0.1 nM

Compound: O=c1[nH]c2ccccc2n1C1CCN(CCCC(c2ccc(F)cc2)c2ccc(F)cc2)CC1 [Pimozide]
- effect on conjugate-stimulated LH release [1]: blocked
- effect on LH release stimulated by dimer plus antibody [1]: diminished LH release to near basal

Compound: CC(C)C[C@H](NC(=O)[C@@H](CCCCNC(=O)CCC(=O)OCCOC(=O)CCC(=O)NCCCC[C@@H](NC(=O)[C@H](Cc1ccc(O)cc1)NC(=O)[C@H](CO)NC(=O)[C@H](Cc1c[nH]c2ccccc12)NC(=O)[C@H](Cc1c[nH]cn1)NC(=O)[C@@H]1CCC(=O)N1)C(=O)N[C@@H](CC(C)C)C(=O)N[C@@H](CCCNC(=N)N)C(=O)N1CCC[C@H]1C(=O)NCC(N)=O)NC(=O)[C@H](Cc1ccc(O)cc1)NC(=O)[C@H](CO)NC(=O)[C@H](Cc1c[nH]c2ccccc12)NC(=O)[C@H](Cc1c[nH]cn1)NC(=O)[C@@H]1CCC(=O)N1)C(=O)N[C@@H](CCCNC(=N)N)C(=O)N1CCC[C@H]1C(=O)NCC(N)=O [(D-Lys^6 -GnRH)2 -EGS dimer]
- ED50 of LH release [1]: 800 pM

Compound: D-pyroglumatic acid-D-phenylalanyl-D-tryptophanyl-D-lysyl-GnRH [GnRH-antagonist]
- binding affinity compared with natural GnRH [2]: higher affinity than natural sequence releasing hormone
- binding affinity relative to natural sequence gonadotropin releasing hormone ([2]; printed as less affinity than natural GnRH, in equivalents of monomeric hormone): about 50 fold
- antagonist action on GnRH-stimulated LH release [3]: blocks the action of both 10^-8 molar and 10^-9 molar GnRH
- IC50 ([3]; GnRH-stimulated (10^-9 molar), pituitary cultures, read-out: 50% inhibitory concentration (IC50) of GnRH-stimulated gonadotropin release): 0.2 nM

Compound: O=C(O)CN(CCOCCOCCN(CC(=O)O)CC(=O)O)CC(=O)O [EGTA]
- effect on conjugate-stimulated LH release [1]: blocked
- effect on LH release stimulated by dimer plus antibody [1]: diminished LH release to near basal

Compound: GnRH: natural sequence gonadotropin releasing hormone (QHWSYGLRPG; Gonadoliberin-1; UniProt P01148 24-33, looked up)
- LH release in response to GnRH ([1]; Example 4, 10^-7 moles GnRH, five hour period): 13.6±0.9 ng LH/20 μL of medium
- concentration at which maximum LH release is reached ([1]; FIG. 6): 10^-7 molar
